Experimental data as given in patent publication US11702422B2, “Imidazopyridazines as modulators of IL-17” (Janssen Pharmaceutica NV, priority 2020, dated 2023).
Counter-ions that a name gives are not always drawn.

Key:
[1] = target: IL-17A(FLAG-Tagged): IL-17RA(His-Tagged) (Homo sapiens, UniProt Q16552, K93Q); test: IL-17A(FLAG-Tagged): IL-17RA(His-Tagged) Binding Disruption Eu-HTRF Assay; details: IL-17A/IL-17RA binding disruption, simple average if tested more than once
How it was run: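 IC50 comes from a one-site competition fit of the HTRF 665/620 nm ratio. Compound dilutions (2-fold, 22 points) were held 1 h rt with FLAG-tagged IL-17A dimer, then His-tagged IL-17RA plus Eu-cryptate anti-FLAG and D2 anti-His antibodies were added for 2 h rt.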

[2] = system: IL-17A-induced G-CSF production in human normal keratinocyte (NHK); test: NHK Assay: IL-17A-induced G-CSF production in human normal keratinocytes; type: cell-based; details: 24 h, adult normal human keratinocytes, IL-17A 5 ng/mL, simple average if tested more than once
How it was run: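 Adult normal human keratinocytes were seeded at 3000-4000 cells/well. Recombinant human IL-17A was pre-incubated 1 h at rt with titrated compound, then added to cells (final 5 ng/mL IL-17A, 0.2% DMSO, 5% FBS) for 24 h at 37° C. Supernatant G-CSF was measured by HTRF against a standard curve to give IC50.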

Sequence of UniProt Q16552 (Q16552 with tags, fused parts or gaps K93Q): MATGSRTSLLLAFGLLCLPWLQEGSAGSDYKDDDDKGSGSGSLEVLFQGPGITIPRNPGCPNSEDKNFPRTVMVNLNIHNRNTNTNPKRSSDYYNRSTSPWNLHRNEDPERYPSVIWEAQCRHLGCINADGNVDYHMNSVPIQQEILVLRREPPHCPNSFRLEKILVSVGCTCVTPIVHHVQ

Row | IC50 [1] [µM] | SMILES | IC50 ([2]; Homo sapiens, Keratinocyte) [µM] | IC50 [2] [µM]
1 | 0.32 | O=C(CCC(F)(F)F)N[C@@H](c1cnn2cc([C@@H](NC(=O)c3cncnc3)C3CCC(F)(F)CC3)nc2c1)C1CC1 [Example 204, N—((S)-(7-((R)-Cyclopropyl(4,4,4-trifluorobutanamido)methyl)imidazo[1,2-b]pyridazin-2-1)(4,4-difluorocyclohexyl)methyl)pyrimidine-5-carboxamide] | 3.3 | 
2 | 0.046 | CC(C)Oc1conc1C(=O)N[C@H](c1cn2ncc([C@H](NC(=O)CCC(F)(F)F)C3CC3)cc2n1)C1CCC(F)(F)CC1 [Example 374, N—((S)-(7-((R)-Cyclopropyl(4,4,4-trifluorobutanamido)methyl)imidazo[1,2-b]pyridazin-2-yl)(4,4-difluorocyclohexyl)methyl)-4-isopropoxyisoxazole-3-carboxamide] | 0.24 | 
3 | 0.049 | O=C(CCC(F)(F)F)N[C@@H](c1cnn2cc([C@@H](NC(=O)c3ncnn3CCOC(F)(F)F)C3CCC(F)(F)CC3)nc2c1)C1CC1 [Example 70, N—((S)-(7-((R)-Cyclopropyl(4,4,4-trifluorobutanamido)methyl)imidazo[1,2-b]pyridazin-2-yl)(4,4-difluorocyclohexyl)methyl)-1-(2-(trifluoromethoxy)ethyl)-1H-1,2,4-triazole-5-carboxamide] | 0.11 | 
4 | 0.83 | CC1(C)CC1C(=O)N[C@H](c1cn2ncc([C@H](NC(=O)CCC(F)(F)F)C3CC3)cc2n1)C1CCC(F)(F)CC1 (stereo partly drawn) [Example 62, N—((S)-(7-((R)-Cyclopropyl(4,4,4-trifluorobutanamido)methyl)imidazo[1,2-b]pyridazin-2-yl)(4,4-difluorocyclohexyl)methyl)-2,2-dimethylcyclopropane-1-carboxamide] | ~4 | 
5 | 0.048 | CC(O)c1nonc1C(=O)N[C@H](c1cn2ncc([C@H](NC(=O)CC3CC(F)(F)C3)C3CC3)cc2n1)C1CCC(F)(F)CC1 (single isomer, unassigned) [Example 395, N—((S)-(7-((R)-Cyclopropyl(2-(3,3-difluorocyclobutyl)acetamido)methyl)imidazo[1,2-b]pyridazin-2-yl)(4,4-difluorocyclohexyl)methyl)-4-((R*)-1-hydroxyethyl)-1,2,5-oxadiazole-3-carboxamide] | 0.17 | 
6 | 0.21 | CC(C)c1ocnc1C(=O)N[C@H](c1cn2ncc([C@H](NC(=O)CCC(F)(F)F)C3CC3)cc2n1)C1CCC(F)(F)CC1 [Example 86, N—((S)-(7-((R)-Cyclopropyl(4,4,4-trifluorobutanamido)methyl)imidazo[1,2-b]pyridazin-2-yl)(4,4-difluorocyclohexyl)methyl)-5-isopropyloxazole-4-carboxamide] | 0.35 | 
7 | 0.077 | Cc1nonc1C(=O)N[C@H](c1cn2ncc([C@H](NC(=O)C(F)(F)CC3CC3)C3CC3)cc2n1)C1CCC(F)(F)CC1 [Example 339, N—((S)-(7-((R)-Cyclopropyl(3-cyclopropyl-2,2-difluoropropanamido)methyl)imidazo[1,2-b]pyridazin-2-yl)(4,4-difluorocyclohexyl)methyl)-4-methyl-1,2,5-oxadiazole-3-carboxamide] | 0.19 | 
8 | 0.21 | Cc1nonc1C(=O)N[C@H](c1cn2ncc([C@H](NC(=O)CC(C)(F)F)C3CC3)cc2n1)C1CCC(F)(F)CC1 [Example 263, N—((S)-(7-((R)-Cyclopropyl(3,3-difluorobutanamido)methyl)imidazo[1,2-b]pyridazin-2-yl)(4,4-difluorocyclohexyl)methyl)-4-methyl-1,2,5-oxadiazole-3-carboxamide] | 1.8 | 
9 | 0.074 | Cc1nonc1C(=O)N[C@H](c1cn2ncc(C(NC(=O)CC3CC(F)(F)C3)C(C)C)cc2n1)C1CCC(F)(F)CC1 (single isomer, unassigned) [Example 513, N—((S)-(7-((S*)-1-(2-(3,3-Difluorocyclobutyl)acetamido)-2-methylpropyl)imidazo[1,2-b]pyridazin-2-yl)(4,4-difluorocyclohexyl)methyl)-4-methyl-1,2,5-oxadiazole-3-carboxamide] | 0.15 | 
10 | 0.043 | CC(C)c1oncc1C(=O)N[C@H](c1cn2ncc([C@H](NC(=O)CCC(F)(F)F)C3CC3)cc2n1)C1CCC(F)(F)CC1 [Example 232, N—((S)-(7-((R)-Cyclopropyl(4,4,4-trifluorobutanamido)methyl)imidazo[1,2-b]pyridazin-2-yl)(4,4-difluorocyclohexyl)methyl)-5-isopropylisoxazole-4-carboxamide] | 0.065 | 
11 | 0.39 | CC[C@H](NC(=O)CC1CC(F)(F)C1)c1cnn2cc([C@@H](NC(=O)c3nonc3C3CC3)C3CCC(F)(F)CC3)nc2c1 (relative stereo) [Example 521, 4-Cyclopropyl-N—((S*)-(7-((R)-1-(2-(3,3-difluorocyclobutyl)acetamido)propyl)imidazo[1,2-b]pyridazin-2-yl)(4,4-difluorocyclohexyl)methyl)-1,2,5-oxadiazole-3-carboxamide] | 8 | 
12 | 0.11 | O=C(CCC(F)(F)F)N[C@@H](c1cnn2cc([C@@H](NC(=O)c3cncc(N4CCCC4=O)c3)C3CCC(F)(F)CC3)nc2c1)C1CC1 [Example 176, N—((S)-(7-((R)-Cyclopropyl(4,4,4-trifluorobutanamido)methyl)imidazo[1,2-b]pyridazin-2-yl)(4,4-difluorocyclohexyl)methyl)-5-(2-oxopyrrolidin-1-yl)nicotinamide] | 0.42 | 
13 | 16 | O=C(CCC(F)(F)F)N[C@@H](c1cnn2cc([C@@H](NC(=O)c3cccc(C(F)(F)F)n3)C3CCC(F)(F)CC3)nc2c1)C1CC1 [Example 221, N—((S)-(7-((R)-Cyclopropyl(4,4,4-trifluorobutanamido)methyl)imidazo[1,2-b]pyridazin-2-yl)(4,4-difluorocyclohexyl)methyl)-6-(trifluoromethyl)picolinamide] | > 20 | 
14 | 0.21 | CC(C)n1nccc1C(=O)N[C@H](c1cn2ncc(C(NC(=O)CC(C(F)(F)F)C(F)(F)F)C3CC3)cc2n1)C1CCC(F)(F)CC1 (single isomer, unassigned) [Example 10, N—((S)-(7-((R*)-Cyclopropyl(4,4,4-trifluoro-3(trifluoromethyl)butanamido)methyl)imidazo[1,2-b]pyridazin-2-yl)(4,4-difluorocyclohexyl)methyl)-1-isopropyl-1H-pyrazole-5-carboxamide] |  | 0.044
15 | 4.8 | Cc1nonc1C(=O)N[C@H](c1cn2ncc([C@H](NC(=O)[C@@]34C[C@@H]3[C@@H](F)C4)C3CC3)cc2n1)C1CCC(F)(F)CC1 (relative stereo) [Example 341, N—((S)-(7-((R)-Cyclopropyl((1R*,3S*,4S*)-3-fluorobicyclo[2.1.0]pentane-1-carboxamido)methyl)imidazo[1,2-b]pyridazin-2-yl)(4,4-difluorocyclohexyl)methyl)-4-methyl-1,2,5-oxadiazole-3-carboxamide] | > 20 | 
16 | 0.061 | Cc1nscc1C(=O)N[C@H](c1cn2ncc([C@H](NC(=O)CCC(F)(F)F)C3CC3)cc2n1)C1CCC(F)(F)CC1 [Example 161, N—((S)-(7-((R)-Cyclopropyl(4,4,4-trifluorobutanamido)methyl)imidazo[1,2-b]pyridazin-2-yl)(4,4-difluorocyclohexyl)methyl)-3-methylisothiazole-4-carboxamide] | 0.31 | 
17 | 0.15 | O=C(CCC(F)(F)F)N[C@@H](c1cnn2cc([C@@H](NC(=O)c3cnn(CC4CC4(F)F)n3)C3CCC(F)(F)CC3)nc2c1)C1CC1 (stereo partly drawn) [Example 93, N—((S)-(7-((R)-Cyclopropyl(4,4,4-trifluorobutanamido)methyl)imidazo[1,2-b]pyridazin-2-yl)(4,4-difluorocyclohexyl)methyl)-2-((2,2-difluorocyclopropyl)methyl)-2H-1,2,3-triazole-4-carboxamide] | 0.28 | 
18 | 0.43 | COc1nocc1C(=O)N[C@H](c1cn2ncc([C@H](NC(=O)CCC(F)(F)F)C3CC3)cc2n1)C1CCC(F)(F)CC1 [Example 239, N—((S)-(7-((R)-Cyclopropyl(4,4,4-trifluorobutanamido)methyl)imidazo[1,2-b]pyridazin-2-yl)(4,4-difluorocyclohexyl)methyl)-3-methoxyisoxazole-4-carboxamide] | 1.3 | 
19 | 0.053 | CC(CC(=O)N[C@@H](c1cnn2cc([C@@H](NC(=O)c3nonc3C3CC3)C3CCC(F)(F)CC3)nc2c1)C1CC1)C(F)(F)F (single isomer, unassigned) [Example 301, 4-Cyclopropyl-N—((S)-(7-((R)-cyclopropyl((S*)-4,4,4-trifluoro-3-methylbutanamido)methyl)imidazo[1,2-b]pyridazin-2-yl)(4,4-difluorocyclohexyl)methyl)-1,2,5-oxadiazole-3-carboxamide] |  | 0.056
20 | 0.18 | O=C(N[C@H](c1cn2ncc(CNC(=O)[C@@H]3NCCC[C@H]3C(F)(F)F)cc2n1)C1CCCCC1)c1ccccc1 (relative stereo) [Example 1, (Trans-2R*,3R*)—N-((2-((S)-benzamido(cyclohexyl)methyl)imidazo[1,2-b]pyridazin-7-yl)methyl)-3-(trifluoromethyl)piperidine-2-carboxamide hydrochloride] | 0.3 | 
